# Tests used:
# MuSCs [1] = assay: cAMP activity assay (cAMP-Glo); format: cell-based, mouse; conditions: 1 hr PGE2 10 ng/ml
# Procedure: MuSCs were treated with DMSO (vehicle) or PGE2 (10 ng/ml) for 1 h and cyclic AMP levels measured according to the cAMP-Glo Assay protocol optimized by the manufacturer (Promega). Each sample was assayed in triplicate and in two independent experiments.
# aged MuSCs = assay: Aged MuSC numbers after acute 24 hr treatment, hydrogel culture; format: cell-based, mouse; conditions: 1-day pulse; PGE2 10 ng/ml or SW033291 1 μM; assayed day 7
# Procedure: (§1) Following isolation, we resuspended MuSCs in myogenic cell culture medium containing DMEM/F10 (50:50), 15% FBS, 2.5 ng ml^−1 fibroblast growth factor-2 (FGF-2 also known as bFGF) and 1% penicillin-streptomycin. We seeded MuSC suspensions at a density of 500 cells per cm^2 surface area. We maintained cell cultures at 37° C. in 5% CO2 and changed medium daily. […]
# (§2) To assay proliferation, we used three different assays (hemocytometer, VisionBlue, and EdU). […] For hemocytometer cell number count, we collected cells at indicated timepoints by incubation with 0.5% trypsin in PBS for 5 min at 37° C. and quantified them using a hemocytometer at least 3 times. Additionally, we used the VisionBlue Quick Cell Viability Fluorometric Assay Kit (BioVision, catalog #K303) as a readout for cell growth in culture. Briefly, we incubated MuSCs with 10% VisionBlue in culture medium for 3 h, and measured fluorescence intensity on a fluorescence plate reader (Infinite M1000 PRO, Tecan) at Ex=530-570 nm, Em=590-620 nm. […] We quantified EdU positive cells using the MetaMorph Image Analysis software (Molecular Devices). Data analyses were blinded, where researchers performing cell scoring were unaware of the treatment condition given to sample groups analyzed.
# MuSCs [2] = assay: MuSC transplantation into injured TA muscle, engraftment by bioluminescence imaging; format: in vivo, mouse; conditions: cultured MuSCs, acute 1-day PGE2, 250 cells transplanted day 7 into NOD-SCID mice
# MuSCs [3] = assay: VisionBlue metabolic viability assay; format: cell-based, mouse; conditions: PGE2 1-200 ng/ml
# Procedure: (§3) To assay proliferation, we used three different assays (hemocytometer, VisionBlue, and EdU). For each, we seeded MuSCs on flat hydrogels (hemocytometer and VisionBlue) or collagen-coated plates (EdU assay) at a density of 500 cells per cm^2 surface area. For hemocytometer cell number count, we collected cells at indicated timepoints by incubation with 0.5% trypsin in PBS for 5 min at 37° C. and quantified them using a hemocytometer at least 3 times. Additionally, we used the VisionBlue Quick Cell Viability Fluorometric Assay Kit (BioVision, catalog #K303) as a readout for cell growth in culture. Briefly, we incubated MuSCs with 10% VisionBlue in culture medium for 3 h, and measured fluorescence intensity on a fluorescence plate reader (Infinite M1000 PRO, Tecan) at Ex=530-570 nm, Em=590-620 nm. We assayed proliferation using the Click-iT EdU Alexa Fluor 555 Imaging kit (Life Technologies). Briefly, we incubated live cells with EdU (20 μM) for 1 hr prior to fixation, and stained nuclei according to the manufacturer's guidelines together with anti-MYOGENIN (Santa Cruz, catalog #sc576, 1:250) to assay differentiation. […] We quantified EdU positive cells using the MetaMorph Image Analysis software (Molecular Devices). Data analyses were blinded, where researchers performing cell scoring were unaware of the treatment condition given to sample groups analyzed.
# MuSCs [4] = assay: Young MuSC numbers after acute PGE2 treatment, hydrogel culture (hemocytometer count); format: cell-based, mouse; conditions: young MuSCs, acute 1-day exposure, PGE2 10 ng/ml, one week later
# Procedure: as §1, §2
# MuSCs [5] = assay: EdU incorporation proliferation assay; format: cell-based, mouse; conditions: young MuSCs, PGE2 10 ng/ml
# Procedure: as §3
# MuSCs [6] = assay: Quantitative RT-PCR of MuSC transcripts; format: cell-based, mouse
# Source text: We isolated RNA from MuSCs using the RNeasy Micro Kit (Qiagen). For muscle samples, we snap froze the tissue in liquid nitrogen, homogenized the tissues using a mortar and pestle, followed by syringe and needle trituration, and then isolated RNA using Trizol (Invitrogen). We reverse-transcribed cDNA from total mRNA from each sample using the SensiFAST™ cDNA Synthesis Kit (Bioline). We subjected cDNA to RT-PCR using SYBR Green PCR Master Mix (Applied Biosystems) or TaqMan Assays (Applied Biosystems) in an ABI 7900HT Real-Time PCR System (Applied Biosystems). We cycled samples at 95° C. for 10 min and then 40 cycles at 95° C. for 15 s and 60° C. for 1 min. To quantify relative transcript levels, we used 2-ΔΔCt to compare treated and untreated samples and expressed the results relative to Gapdh. For SYBR Green qRT-PCR, we used the following primer sequences: Gapdh. forward 5′-[…]-3′ (SEQ ID NO: 1), reverse 5′-CCCTTTTGGCTCCACCCT-3′ (SEQ ID NO: 2); Hpgd, forward 5′-[…]-3′ (SEQ ID NO: 3), reverse 5′-[…]-3′ (SEQ ID NO: 4); Ptges, forward 5′-GCTGTCATCACAGGCCAGA-3′ (SEQ ID NO: 5), reverse 5′-[…]-3′ (SEQ ID NO: 6); Ptges2, forward 5′-[…]-3′ (SEQ ID NO: 7), reverse 5′-[…]-3′ (SEQ ID NO: 8); Ptger1, forward 5′ GTGGTGTCGTGCATCTGCT-3′ (SEQ ID NO: 9), reverse, 5′ […]-3′ (SEQ ID NO: 10), and Ptger2, forward 5′-[…]-3′ (SEQ ID NO: 11), reverse 5′-[…]-3′ (SEQ ID NO: 12). TaqMan Assays (Applied Biosystems) were used to quantify Pax7. Myogenin. Slco2a1 (PGT), Ptger3 and Ptger4 in samples according to the manufacturer instructions with the TaqMan Universal PCR Master Mix reagent kit (Applied Biosystems). Transcript levels were expressed relative to Gapdh levels. For SYBR Green qPCR, Gapdh qPCR was used to normalize input cDNA samples. For Taqman qPCR, multiplex qPCR enabled target signals (FAM) to be normalized individually by their internal Gapdh signals (VIC).
smiles,measurement,setting,value
"CCCCC[C@H](O)/C=C/[C@H]1[C@H](O)CC(=O)[C@@H]1C/C=C\CCCC(=O)O [PGE2, prostaglandin E2]",intracellular cAMP,MuSCs [1],elevated
same,proliferation of aged MuSCs,aged MuSCs,increase
same,young MuSC regenerative capacity assessed by BLI,MuSCs [2],enhanced by an order of magnitude
same,proliferation measured by VisionBlue,MuSCs [3],Increase
same,increase in the number of MuSCs relative to controls,MuSCs [4],6 fold
same,cell division assayed by EDU incorporation,MuSCs [5],increased
same,transcript levels of Ptger1 and Ptger4,MuSCs [6]; after 24 hr PGE2 treatment of MuSCs,upregulated
same,Pax7 expression in aged MuSCs,"MuSCs [6]; aged MuSCs, 1-day pulse",maintenance

# — patent US11969433B2, “Compositions and methods for muscle regeneration using prostaglandin E2” (The Board of Trustees of the Leland Stanford Junior …, priority 2016, dated 2024)
